Laboratory results reported in US6387955B1, “Enhanced anti-angiogenic activity of permanently charged derivatives of steroid hormones” (Pharmos Corporation, priority 1997, dated 2002).

Legend:
[1] = system: MCF-7 tumors; assay: Capillary density in MCF-7 tumor sections by microscopic morphometry; format: in vivo, nude mice; settings: viable regions only
Procedure: Tumors from TMI-treated animals and from placebo-treated animals were removed after cervical dislocation. Tumors were treated with a biological dye (Davidson Marking Systems, Bradley Products, Bloomington, Minn.) so that histological sections could be oriented in the same direction as MRI slice images. The histological plane corresponding to the central slice of the MRI study was established by a single cut through the tumor. This plane was based on the position of the tumor in the spectrometer, sagittal, transverse and coronal images and anatomical landmarks. The bisected tumors were fixed in 10% formalin, dehydrated in 70% ethanol, blocked in paraffin. 4 μm histological sections were cut, placed on slides and stained with either hematoxylin-eosin or a modified trichrome method. Hematoxylin-eosin was used to assess viability, necrosis and pigmentation. The modified trichrome method was applied to the identification of fibrotic regions (i.e., the dye stains for mucopolysaccharides).
Vascular density was determined using two techniques: by morphometric analysis of histological sections and by image analysis of GSL-1 lectin stained sections. […] In each field, the number of grid squares containing capillaries, as defined by either the presence of red blood cells or a distinct endothelial cell, were recorded. […]

[2] = Tolerability in mice; format: in vivo; settings: mice
[3] = system: MCF-7 tumors; assay: Tumor necrosis in MCF-7 tumors by T2-weighted MRI; format: in vivo, nude mice
Procedure: Female CD1-nu/nu athymic mice (6 weeks old) were obtained from the Weizmann Institute Department of Animal Services. MCF-7 cells, serially passed as described above, were detached from the culturing flasks with 0.03% EDTA in phosphate buffered saline (PBS) and washed several times in normal saline. Cells (10^7/innoculum) were then injected into the ventral fat pad at the level of the breast. Coincident with cell introduction, a slow-release pellet of estradiol (0.72 mg/pellet, 45-day release profile; Innovative Research, Sarasota, Fla.) was implanted subcutaneously in the flank of the animal. Mice were anesthetized with ketamine/Rompun (i.p.) for the surgical procedures. […] At this point, animals were randomized into four study groups. In the first, the estrogen pellet was removed and replaced with a slow-release TMI-laden pellet (6.3 mg, 45-day release) (n=5). In the second group, the estrogen pellet was removed and replaced with a tamoxifen pellet (n=7). The third group was treated with a blank (placebo) pellet (n=5), while the fourth group was reimplanted with an estradiol pellet (n=4). TMI and placebo-treated animals were imaged (under ketamine/Rompun anesthesia) either immediately before pellet exchange (day 0) or at day 3, 6, 12 and 25 after pellet exchange.
MRI images were recorded with a Bruker 4.7 (tesla)/30 Biospec spectrometer (Bruker Medizintechnik, Rheinstetten, Germany). 1H Spin-echo images were recorded at 200.12 MHz using a custom-made 4.5 cm rf coil with an image data matrix of 256×128 pixels. Pilot scans of the tumors were completed using a fast transverse multi-slice spin-echo sequence (giving T1-weighted spectra; inter-echo time (TE)=16 msec, recovery time (TR)=500 msec) followed by T2-weighted sequences in which axial slices perpendicular to the spine (i.e., a coronal orientation) were recorded. In the latter case, spin-echo images were obtained using a 4 cm field of view, 1 mm slice thickness, 1.2 mm slice-to-slice distance and a four-sequence average. The TE and TR were optimized to provide the best image contrast generating values of 80 and 3200 msec, respectively. This gave a total imaging time of approximately 30 min. Under the conditions reported, the in-plane resolution was 155×310 μm. Tumor size was calculated using a slice-to-slice reconstruction in which the slice surface area was obtained from histograms provided by the resident Bruker software package using the following relationship:
where XSA is the cross-sectional area of an internal slice, ES is the cross-sectional area of an edge slice, l is the slice thickness and ssd is the distance from the middle of one slice to the middle of the next. For image analysis, the average pixel intensity of viable portions of MCF-7 tumors was determined from a central tumor slice using histograms generated by the dedicated Bruker software package. […] Fibrosis was defined as those areas manifesting a decrease in pixel intensity of […].
In vivo tumor histology was assessed for TMI and placebo-treated tumors using T2-weighted MR images. […] At this time, the area of necrosis was two-fold higher than that observed on day 0 (increasing from an average of 20% to approximately 40%).

[4] = system: Bovine endothelial cells; assay: Endothelial cell tube formation on Matrigel; format: cell-based; settings: 10 μM, image analysis
Procedure: Bovine endothelial cells were harvested by brief exposure to 1 mM EDTA, washed with DMEM containing 0.1% bovine serum albumin and added to a layer of Matrigel (basement membrane components) in a 24 well plate to a density of 50,000 cells per well. After attachment, culture media (1.0 ml) was added and the plates incubated as a monolayer culture in the presence or absence of various concentrations of TMI. The plates were analyzed hourly using Hoffman optics for endothelial tube formation and growth. Photomicrographs were taken for estimation of relative inhibitory action.
The action of TMI on angiogenesis was evaluated using in vitro techniques. Bovine endothelial cells seeded on matrigel (a basement membrane preparation made up of laminin, collagen type IV, heparin sulfate proteoglycan and entactin) will form tubes which elongate as a function of time. […] A dose of 10 μM of TMI decreased tube area by more than 70%, as measured by image analysis.

CC/C(=C(\c1ccccc1)c1ccc(OCC[N+](C)(C)C)cc1)c1ccccc1 [TMI, Tamoxifen methiodide]
reduction in capillary area compared with the placebo [1]: 50%
tolerability [2]: well tolerated
total area of necrosis, day three average ([3]; day 3 after pellet exchange): 72%
maximum extent of necrosis ([3]; preliminary comparison of TMI and tamoxifen): 72%
onset of tumor necrosis ([3]; sampling day after pellet exchange): 3 days
decrease of tube area [4]: more than 70%
